In patent US20180368410A1, “MICROBIOCIDAL OXADIAZOLE DERIVATIVES” (SYNGENTA PARTICIPATIONS AG, priority 2015, published 2018):

How the values were obtained:
[1] = test system: Puccinia recondita f. Sp. Triticil; experiment: Puccinia recondita f. sp. tritici / wheat / leaf disc curative (brown rust); type: in vivo, Puccinia recondita f. sp. tritici on wheat cv. Kanzler; details: foliar, 200 ppm in the applied formulation, applied 1 day after inoculation, assessed 6 to 8 days after application, vs untreated control leaf disks, read-out: disease control
Method: (§1) Leaf disks or leaf segments of various plant species are cut from plants grown in a greenhouse. The cut leaf disks or segments are placed in multiwell plates (24-well format) onto water agar. The leaf disks are sprayed with a test solution before (preventative) or after (curative) inoculation. Compounds to be tested are prepared as DMSO solutions (max. 10 mg/ml) which are diluted to the appropriate concentration with 0.025% Tween20 just before spraying. The inoculated leaf disks or segments are incubated under defined conditions (temperature, relative humidity, light, etc.) according to the respective test system. A single evaluation of disease level is carried out 3 to 14 days after inoculation, depending on the pathosystem. Percent disease control relative to the untreated check leaf disks or segments is then calculated.
Wheat leaf segments cv. Kanzler are placed on agar in multiwell plates (24-well format). The leaf segments are then inoculated with a spore suspension of the fungus. Plates were stored in darkness at 19° C. and 75% relative humidity. The formulated test compound diluted in water was applied 1 day after inoculation. The leaf segments were incubated at 19° C. and 75% relative humidity under a light regime of 12 hours light/12 hours darkness in a climate cabinet and the activity of a compound was assessed as percent disease control compared to untreated when an appropriate level of disease damage appears in untreated check leaf segments (6 to 8 days after application).
(§2) The following compounds at 200 ppm in the applied formulation give at least 80% disease control in this test when compared to untreated control leaf disks under the same conditions, which show extensive disease development.

Phakopsora pachyrhizi = Phakopsora pachyrhizi / soybean / leaf disc preventative (Asian soybean rust); type: in vivo, Phakopsora pachyrhizi on soybean; details: foliar, 200 ppm in the applied formulation, inoculated one day after application, assessed 12 to 14 days after application, vs untreated control leaf disks, read-out: disease control
Method: as §1
Soybean leaf disks are placed on water agar in multiwell plates (24-well format) and sprayed with the formulated test compound diluted in water. One day after application leaf discs are inoculated by spraying a spore suspension on the lower leaf surface. After an incubation period in a climate cabinet of 24-36 hours in darkness at 20° C. and 75% rh leaf disc are kept at 20° C. with 12 h light/day and 75% rh. The activity of a compound is assessed as percent disease control compared to untreated when an appropriate level of disease damage appears in untreated check leaf disks (12 to 14 days after application).
as §2

[2] = test system: Puccinia recondita f. Sp. Tritici; experiment: Puccinia recondita f. sp. tritici / wheat / leaf disc preventative (brown rust); type: in vivo, Puccinia recondita f. sp. tritici on wheat cv. Kanzler; details: foliar, 200 ppm in the applied formulation, inoculated 1 day after application, assessed 7 to 9 days after application, vs untreated control leaf disks, read-out: disease control
Method: as §1, with “calculated. Wheat leaf segments cv. Kanzler were placed on agar in multiwell plates (24-well format) and sprayed with the formulated test compound diluted in water. The leaf disks were inoculated with a spore suspension of the fungus 1 day after application. The inoculated leaf segments were incubated at 19′C and 75% relative humidity (rh) under a light regime of 12 hours light/12 hours darkness in a climate cabinet and the activity of a compound was assessed as percent disease control compared to untreated when an appropriate level of disease damage appears in untreated check leaf segments (7 to 9 days after application). The following compounds at 200 ppm in the applied formulation give at least 80% disease control in this test when compared to untreated control leaf disks under the same conditions, which show extensive disease development.” for “calculated.”

[3] = test system: Glomerella Lacenarium (Colletotrichum lacenarium); experiment: Glomerella lagenarium (Colletotrichum lagenarium) liquid culture / cucumber / preventative (anthracnose); type: cell-based; details: 20 ppm in the applied formulation, liquid culture in PDB, 24° C., inhibition of growth measured photometrically 3 to 4 days after application, vs untreated control, read-out: disease control
Method: Mycelia fragments or conidia suspensions of a fungus prepared either freshly from liquid cultures of the fungus or from cryogenic storage, are directly mixed into nutrient broth. DMSO solutions of the test compound (max. 10 mg/ml) are diluted with 0.025% Tween20 by a factor of 50 and 10 μl of this solution is pipetted into a microtiter plate (96-well format). The nutrient broth containing the fungal spores/mycelia fragments is then added to give an end concentration of the tested compound. The test plates are incubated in the dark at 24° C. and 96% relative humidity. The inhibition of fungal growth is determined photometrically after 2 to 7 days, depending on the pathosystem, and percent antifungal activity relative to the untreated check is calculated.
Conidia of the fungus from cryogenic storage are directly mixed into nutrient broth (PDB—potato dextrose broth). After placing a (DMSO) solution of test compound into a microtiter plate (96-well format), the nutrient broth containing the fungal spores is added. The test plates are incubated at 24° C. and the inhibition of growth is measured photometrically 3 to 4 days after application.
The following compounds at 20 ppm in the applied formulation give at least 80% disease control in this test when compared to untreated control under the same conditions, which show extensive disease development.

CC1(C(=O)NCc2ccc(-c3noc(C(F)(F)F)n3)cc2)COC1 [Compound 1.54, 3-methyl-N-[[4-[5-(trifluoromethyl)-1,2,4-oxadiazol-3-yl]phenyl]methyl] oxetane-3-carboxamide]
≥ 80%: pest or weed control at 200 ppm [1] | pest or weed control at 200 ppm (Phakopsora pachyrhizi) | pest or weed control at 200 ppm [2] | inhibition of growth at 20 ppm [3]

O=C(NCc1ccc(-c2noc(C(F)(F)F)n2)cc1F)C1CC1(F)F (stereo not shown) [Compound 1.61, 2,2-difluoro-N-[[2-fluoro-4-[5-(trifluoromethyl)-1,2,4-oxadiazol-3-yl]phenyl]methyl] cyclopropanecarboxamide]
≥ 80%: pest or weed control at 200 ppm [1] | pest or weed control at 200 ppm (Phakopsora pachyrhizi) | pest or weed control at 200 ppm [2] | inhibition of growth at 20 ppm [3]

O=C(CC1CC1)NCc1ccc(-c2noc(C(F)(F)F)n2)cc1F [Compound 1.62, 2-cyclopropyl-N-[[2-fluoro-4-[5-(trifluoromethyl)-1,2,4-oxadiazol-3-yl]phenyl]methyl] acetamide]
≥ 80%: pest or weed control at 200 ppm [1] | pest or weed control at 200 ppm (Phakopsora pachyrhizi) | pest or weed control at 200 ppm [2] | inhibition of growth at 20 ppm [3]

CC1CC1C(=O)NCc1ccc(-c2noc(C(F)(F)F)n2)c(F)c1 (stereo not shown) [Compound 1.64, N-[[3-fluoro-4-[5-(trifluoromethyl)-1,2,4-oxadiazol-3-yl]phenyl]methyl]-2-methyl-cyclopropanecarboxamide]
≥ 80%: pest or weed control at 200 ppm [1] | pest or weed control at 200 ppm (Phakopsora pachyrhizi) | pest or weed control at 200 ppm [2] | inhibition of growth at 20 ppm [3]

CC1(C(=O)NCc2ccc(-c3noc(C(F)(F)F)n3)c(F)c2)CC1 [Compound 1.65, N-[[3-fluoro-4-[5-(trifluoromethyl)-1,2,4-oxadiazol-3-yl]phenyl]methyl]-1-methyl-cyclopropanecarboxamide]
≥ 80%: pest or weed control at 200 ppm [1] | pest or weed control at 200 ppm (Phakopsora pachyrhizi) | pest or weed control at 200 ppm [2] | inhibition of growth at 20 ppm [3]

CC1CC1C(=O)NCc1ccc(-c2noc(C(F)(F)F)n2)cc1F (stereo not shown) [Compound 1.66, N-[[2-fluoro-4-[5-(trifluoromethyl)-1,2,4-oxadiazol-3-yl]phenyl]methyl]-2-methyl-cyclopropanecarboxamide]
≥ 80%: pest or weed control at 200 ppm [1] | pest or weed control at 200 ppm (Phakopsora pachyrhizi) | pest or weed control at 200 ppm [2] | inhibition of growth at 20 ppm [3]

CC1(C(=O)NCc2ccc(-c3noc(C(F)(F)F)n3)cc2F)CC1 [Compound 1.67, N-[[2-fluoro-4-[5-(trifluoromethyl)-1,2,4-oxadiazol-3-yl]phenyl]methyl]-1-methyl-cyclopropanecarboxamide]
≥ 80%: pest or weed control at 200 ppm [1] | pest or weed control at 200 ppm (Phakopsora pachyrhizi) | pest or weed control at 200 ppm [2] | inhibition of growth at 20 ppm [3]

CC1(C(=O)NCc2ccc(-c3noc(C(F)(F)F)n3)c(F)c2)COC1 [Compound 1.69, N-[[3-fluoro-4-[5-(trifluoromethyl)-1,2,4-oxadiazol-3-yl]phenyl]methyl]-3-methyl-oxetane-3-carboxamide]
≥ 80%: pest or weed control at 200 ppm [1] | pest or weed control at 200 ppm (Phakopsora pachyrhizi) | pest or weed control at 200 ppm [2] | inhibition of growth at 20 ppm [3]

O=C(NCc1ccc(-c2noc(C(F)(F)F)n2)c(F)c1F)C1CC1(F)F (stereo not shown) [Compound 1.72, N-[[2,3-difluoro-4-[5-(trifluoromethyl)-1,2,4-oxadiazol-3-yl]phenyl]methyl]-2,2-difluoro-cyclopropanecarboxamide]
≥ 80%: pest or weed control at 200 ppm [1] | pest or weed control at 200 ppm (Phakopsora pachyrhizi) | pest or weed control at 200 ppm [2] | inhibition of growth at 20 ppm [3]

O=C(CC1CC1)NCc1ccc(-c2noc(C(F)(F)F)n2)c(F)c1F [Compound 1.73, 2-cyclopropyl-N-[[2,3-difluoro-4-[5-(trifluoromethyl)-1,2,4-oxadiazol-3-yl]phenyl]methyl]acetamide]
≥ 80%: pest or weed control at 200 ppm [1] | pest or weed control at 200 ppm (Phakopsora pachyrhizi) | pest or weed control at 200 ppm [2] | inhibition of growth at 20 ppm [3]

O=C(NCc1ccc(-c2noc(C(F)(F)F)n2)c(F)c1F)C1CCC1 [Compound 1.75, N-[[2,3-difluoro-4-[5-(trifluoromethyl)-1,2,4-oxadiazol-3-yl]phenyl]methyl] cyclobutanecarboxamide]
≥ 80%: pest or weed control at 200 ppm [1] | pest or weed control at 200 ppm (Phakopsora pachyrhizi) | pest or weed control at 200 ppm [2] | inhibition of growth at 20 ppm [3]

CC1(C(=O)NCc2ccc(-c3noc(C(F)(F)F)n3)c(F)c2F)CC1 [Compound 1.78, N-[[2,3-difluoro-4-[5-(trifluoromethyl)-1,2,4-oxadiazol-3-yl]phenyl]methyl]-1-methyl-cyclopropanecarboxamide]
≥ 80%: pest or weed control at 200 ppm [1] | pest or weed control at 200 ppm (Phakopsora pachyrhizi) | pest or weed control at 200 ppm [2] | inhibition of growth at 20 ppm [3]

O=C(NCc1ccc(-c2noc(C(F)(F)F)n2)c(F)c1)C1CC1(F)F (stereo not shown) [Compound 1.91, 2,2-difluoro-N-[[3-fluoro-4-[5-(trifluoromethyl)-1,2,4-oxadiazol-3-yl]phenyl]methyl] cyclopropanecarboxamide]
≥ 80%: pest or weed control at 200 ppm [1] | pest or weed control at 200 ppm (Phakopsora pachyrhizi) | pest or weed control at 200 ppm [2] | inhibition of growth at 20 ppm [3]

O=C(CC1CC1)NCc1ccc(-c2noc(C(F)(F)F)n2)c(F)c1 [Compound 1.92, 2-cyclopropyl-N-[[3-fluoro-4-[5-(trifluoromethyl)-1,2,4-oxadiazol-3-yl]phenyl]methyl]acetamide]
≥ 80%: pest or weed control at 200 ppm [1] | pest or weed control at 200 ppm (Phakopsora pachyrhizi) | pest or weed control at 200 ppm [2] | inhibition of growth at 20 ppm [3]

O=C(NCc1ccc(-c2noc(C(F)(F)F)n2)c(F)c1)C1CCC1 [Compound 1.93, N-[[3-fluoro-4-[5-(trifluoromethyl)-1,2,4-oxadiazol-3-yl]phenyl]methyl] cyclobutanecarboxamide]
≥ 80%: pest or weed control at 200 ppm [1] | pest or weed control at 200 ppm (Phakopsora pachyrhizi) | pest or weed control at 200 ppm [2] | inhibition of growth at 20 ppm [3]

O=C(NCCc1ccc(-c2noc(C(F)(F)F)n2)cc1)C1CC1(F)F (stereo not shown) [Compound 1.98, 2,2-difluoro-N-[2-[4-[5-(trifluoromethyl)-1,2,4-oxadiazol-3-yl]phenyl]ethyl] cyclopropanecarboxamide]
≥ 80%: pest or weed control at 200 ppm [1] | pest or weed control at 200 ppm (Phakopsora pachyrhizi) | pest or weed control at 200 ppm [2] | inhibition of growth at 20 ppm [3]
